Measured values published in patent US20250144067A1, “PERSONALIZED STARVATION THERAPY FOR CANCER” (Faeth Therapeutics, Inc., priority 2021, published 2025).
Where a name gives a salt, the structure may show the parent alone. Read-outs that look alike come from different tables or passages of the source.

Key:
[1] = test system: NCI-H292 lung cancer cells; assay: FDA drug screening, complete media vs cholesterol-free media without statin (TABLE 1); assay type: cell-based, human
[2] = test system: NCI-H292 lung cancer cells; assay: FDA drug screening, complete media vs cholesterol-free media with simvastatin (TABLE 2); assay type: cell-based, human
[3] = NCI-H292 cells, cholesterol-free media without statin
[4] = complete vs cholesterol-free media, greater than 0 enhanced anti-cancer activity, about 0 neutral, below 0 antagonists
[5] = NCI-H292 cells, drug in cholesterol-free media with simvastatin 0.04 μM
[6] = NCI-H292 cells, drug in complete media
[7] = complete media vs cholesterol-free media + simvastatin (0.04 μM), >0 enhanced anti-cancer activity, about 0 neutral, <0 antagonist
[8] = NCI-H292 cells, cholesterol-free media without statin, FDA drug library screen
[9] = NCI-H292 cells, complete media, FDA drug library screen
[10] = complete vs cholesterol-free media, […]
[11] = NCI-H292 cells, FDA library drug in cholesterol-free media with simvastatin 0.04 μM
[12] = NCI-H292 cells, FDA library drug in complete media
[13] = Complete minus Cholesterol-free, >0 enhanced anti-cancer activity, about 0 neutral, <0 antagonist
[14] = NCI-H292 cells, cholesterol-free media with simvastatin 0.04 μM, FDA drug library screen (TABLE 2)
[15] = NCI-H292 cells, complete media, FDA drug library screen (TABLE 2)
[16] = complete media minus cholesterol-free media + simvastatin (0.04 μM), >0 enhanced anti-cancer activity, about 0 neutral, <0 antagonist
[17] = complete vs cholesterol-free media, >0 enhanced anti-cancer activity, about 0 neutral, <0 antagonist
[18] = Complete minus Cholesterol-free, greater than 0 enhanced anti-cancer activity, about 0 neutral, below 0 antagonists
[19] = NCI-H292 cells in cholesterol-free media without statin
[20] = NCI-H292 cells in complete media
[21] = NCI-H292 cells, FDA drug library screen, cholesterol-free media with simvastatin 0.04 μM
[22] = NCI-H292 cells, FDA drug library screen, complete media
[23] = NCI-H292 cells, cholesterol-free media with simvastatin 0.04 μM, cell growth value in FDA drug screen
[24] = NCI-H292 cells, complete media, cell growth value in FDA drug screen
[25] = complete media minus cholesterol-free media + simvastatin, >0 enhanced anti-cancer activity, about 0 neutral, <0 antagonist
[26] = Complete minus Cholesterol-free, greater than 0 enhanced anti-cancer activity, about 0 neutral, below 0 antagonist
[27] = NCI-H292 cells, FDA drug library screen, cholesterol-free media without statin
[28] = complete media vs cholesterol-free media + simvastatin (0.04 μM), […]

CC(C)(C)NC(=O)[C@@H]1C[C@@H]2CCCC[C@@H]2CN1C[C@@H](O)[C@H](Cc1ccccc1)NC(=O)[C@H](CC(N)=O)NC(=O)c1ccc2ccccc2n1 [Saquinavir]
Cholesterol-free [1, 3]: 1.314
Complete ([1]; NCI-H292 cells, complete media): 0.9252
Difference [1, 4]: −0.39
Cholesterol-free media + simvastatin (0.04 μM) [2, 5]: 0.9867
Complete Media [2, 6]: 0.801
Difference [2, 7]: −0.19

CNCC(=O)N[C@@H](CCCN=C(N)N)C(=O)N[C@H](C(=O)N[C@@H](Cc1ccc(O)cc1)C(=O)N[C@H](C(=O)N[C@@H](Cc1cnc[nH]1)C(=O)N1CCC[C@H]1C(=O)N[C@@H](C)C(=O)O)C(C)C)C(C)C [Saralasin (TFA)]
Cholesterol-free [1, 8]: 1.11
Complete [1, 9]: 1.396
Difference [1, 10]: 0.29
Cholesterol-free media + simvastatin (0.04 μM) ([2]; NCI-H292 cells, cholesterol-free media with simvastatin 0.04 μM, […]): 0.7862
Complete Media ([2]; NCI-H292 cells, complete media, […]): 0.8195
Difference ([2]; complete media minus cholesterol-free media + simvastatin, […]): 0.03

COc1cccc(CCc2ccccc2OCC(CN(C)C)OC(=O)CCC(=O)O)c1 (centres unmarked) [Sarpogrelate (hydrochloride)]
Cholesterol-free [1, 3]: 1.015
Complete ([1]; NCI-H292 cells, complete media): 0.6472
Difference [1, 4]: −0.37
Cholesterol-free media + simvastatin (0.04 μM) [2, 11]: 1.378
Complete Media [2, 12]: 1.089
Difference [2, 7]: −0.29

N#C[C@@H]1C[C@@H]2C[C@@H]2N1C(=O)[C@@H](N)C12CC3CC(CC(O)(C3)C1)C2 [Saxagliptin]
Difference [1, 13]: −0.04
Cholesterol-free [1, 8]: 0.9657
Complete [1, 9]: 0.9238
Cholesterol-free media + simvastatin (0.04 μM) [2, 14]: 0.8307
Complete Media [2, 15]: 0.816
Difference [2, 16]: −0.01

Cc1ncc([N+](=O)[O-])n1CC(C)O (centres unmarked) [Secnidazole]
Cholesterol-free [1, 8]: 1.105
Complete [1, 9]: 1.528
Difference [1, 17]: 0.42
Cholesterol-free media + simvastatin (0.04 μM) [2, 14]: 1.474
Complete Media [2, 15]: 1.409
Difference [2, 16]: −0.07

CO[C@H]1C[C@H](O[C@@H]2/C(C)=C/C[C@@H]3C[C@@H](C[C@]4(CC[C@H](C)[C@@H](C5CCCCC5)O4)O3)OC(=O)[C@@H]3C=C(C)/C(=N/O)[C@H]4OC/C(=C\C=C\[C@@H]2C)[C@]43O)O[C@@H](C)[C@@H]1O [Selamectin]
Cholesterol-free [1]: −0.000828
Complete [1]: −0.0121
Difference [1]: −0.01
Cholesterol-free media + simvastatin (0.04 μM) [2]: 0.0107
Complete Media [2]: 0.03346
Difference [2]: 0.02

C[Se]CC[C@H](N)C(=O)O [Selenomethionine]
Difference [1, 18]: −0.63
Cholesterol-free [1, 19]: 1.898
Complete [1, 20]: 1.265
Cholesterol-free media + simvastatin (0.04 μM) [2, 21]: 1.83
Complete Media [2, 22]: 1.71
Difference [2, 7]: −0.12

CC(C)N(CCCCOCC(=O)NS(C)(=O)=O)c1cnc(-c2ccccc2)c(-c2ccccc2)n1 [Selexipag]
Cholesterol-free [1, 8]: 0.7206
Complete [1, 9]: 1.028
Difference [1, 17]: 0.31
Cholesterol-free media + simvastatin (0.04 μM) [2, 23]: 0.9295
Complete Media [2, 24]: 1.013
Difference [2, 25]: 0.08

COc1ccc(CN2C3CC2CN(c2ccc(-c4cc(OCC(C)(C)O)cn5ncc(C#N)c45)cn2)C3)cn1 [Selpercatinib]
Difference [1, 13]: −0.01
Cholesterol-free [1, 8]: 0.9224
Complete [1, 9]: 0.9158
Cholesterol-free media + simvastatin (0.04 μM) [2, 21]: 1.485
Complete Media [2, 22]: 1.627
Difference [2, 25]: 0.14

Cn1cnc2c(F)c(Nc3ccc(Br)cc3Cl)c(C(=O)NOCCO)cc21 [Selumetinib]
Difference [1, 26]: −0.18
Cholesterol-free [1, 27]: 0.4744
Complete [1, 22]: 0.2899
Cholesterol-free media + simvastatin (0.04 μM) [2, 11]: 0.7343
Complete Media [2, 12]: 0.4618
Difference [2, 7]: −0.27

CC1=C(C)C(=O)C(C(CCCCCC(=O)O)c2ccccc2)=C(C)C1=O (centres unmarked) [Seratrodast]
Difference [1, 13]: 0.00
Cholesterol-free [1, 8]: 0.9876
Complete [1, 9]: 0.9904
Cholesterol-free media + simvastatin (0.04 μM) [2, 21]: 0.9305
Complete Media [2, 22]: 1.335
Difference [2, 25]: 0.40

NCCc1c[nH]c2ccc(O)cc12 [Serotonin hydrochloride]
Difference [1, 18]: −0.64
Cholesterol-free [1, 19]: 1.639
Complete [1, 20]: 1.003
Cholesterol-free media + simvastatin (0.04 μM) [2, 5]: 1.379
Complete Media [2, 6]: 1.18
Difference [2, 7]: −0.20

O=C1NCCN1CCN1CCC(c2cn(-c3ccc(F)cc3)c3ccc(Cl)cc23)CC1 [Sertindole]
Difference [1, 13]: −0.04
Cholesterol-free [1, 8]: 0.5468
Complete [1, 9]: 0.5035
Cholesterol-free media + simvastatin (0.04 μM) [2, 21]: 0.7983
Complete Media [2, 22]: 1.128
Difference [2, 25]: 0.33

CN[C@H]1CC[C@@H](c2ccc(Cl)c(Cl)c2)c2ccccc21 [Sertraline (hydrochloride)]
Difference [1, 26]: −0.11
Complete [1, 22]: 0.9984
Cholesterol-free media + simvastatin (0.04 μM) [2, 21]: 0.9083
Complete Media [2, 22]: 1.2
Difference [2, 25]: 0.29

CN1CCC2=C(C1)c1ccccc1Cc1ccccc12 [Setiptiline]
Difference [1, 26]: −0.08
Cholesterol-free [1, 27]: 1.103
Complete [1, 22]: 1.024
Cholesterol-free media + simvastatin (0.04 μM) [2, 5]: 1.048
Complete Media [2, 6]: 0.8546
Difference [2, 7]: −0.19

CCCc1nn(C)c2c(=O)[nH]c(-c3cc(S(=O)(=O)N4CCN(C)CC4)ccc3OCC)nc12 [Sildenafil]
Difference [1, 18]: −0.63
Cholesterol-free [1, 19]: 1.66
Complete [1, 20]: 1.034
Cholesterol-free media + simvastatin (0.04 μM) [2, 21]: 1.23
Complete Media [2, 22]: 1.131
Difference [2, 7]: −0.10

COc1cc(C2Oc3cc([C@H]4Oc5cc(O)cc(O)c5C(=O)[C@@H]4O)ccc3OC2CO)ccc1O (some centres unmarked) [Silibinin]
Cholesterol-free [1, 8]: 0.9386
Complete [1, 9]: 1.219
Difference [1, 17]: 0.28
Cholesterol-free media + simvastatin (0.04 μM) [2, 11]: 2.112
Complete Media [2, 12]: 1.696
Difference [2, 7]: −0.42

C[C@H](Cc1cc2c(c(C(N)=O)c1)N(CCCO)CC2)NCCOc1ccccc1OCC(F)(F)F [Silodosin]
Cholesterol-free [1, 3]: 1.295
Complete ([1]; NCI-H292 cells, complete media): 0.8816
Difference [1, 4]: −0.41
Cholesterol-free media + simvastatin (0.04 μM) [2, 21]: 1.21
Complete Media [2, 22]: 1.074
Difference [2, 7]: −0.14

COc1ccc2c(O[C@@H]3C[C@H]4C(=O)N[C@]5(C(=O)NS(=O)(=O)C6CC6)C[C@H]5/C=C\CCCCN(C)C(=O)[C@@H]4C3)cc(-c3nc(C(C)C)cs3)nc2c1C [Simeprevir]
Cholesterol-free [1, 8]: 0.5666
Complete [1, 9]: 0.795
Difference [1, 17]: 0.23
Cholesterol-free media + simvastatin (0.04 μM) [2, 21]: 0.845
Complete Media [2, 22]: 0.7552
Difference [2, 7]: −0.09

COC1=C[C@@H]2[C@@H]3Cc4ccc(OC)c(O)c4[C@]2(CCN3C)CC1=O [Sinomenine hydrochloride]
Cholesterol-free [1, 8]: 1.217
Complete [1, 9]: 1.524
Difference [1, 10]: 0.31
Cholesterol-free media + simvastatin (0.04 μM) [2, 5]: 1.006
Complete Media [2, 6]: 0.7844
Difference [2, 28]: −0.22

CCc1cc(/C(C)=N/OCc2ccc(C3CCCCC3)c(C(F)(F)F)c2)ccc1CN1CC(C(=O)O)C1 [Siponimod]
Difference [1, 13]: −0.01
Cholesterol-free [1, 8]: 0.9324
Complete [1, 9]: 0.9251
Cholesterol-free media + simvastatin (0.04 μM) [2, 11]: 1.121
Complete Media [2, 12]: 0.7701
Difference [2, 7]: −0.35

N[C@@H]1CN(c2c(F)cc3c(=O)c(C(=O)O)cn([C@@H]4C[C@@H]4F)c3c2Cl)CC12CC2.O [Sitafloxacin (hydrate)]
Cholesterol-free [1, 3]: 1.147
Complete ([1]; NCI-H292 cells, complete media): 0.7079
Difference [1, 10]: −0.44
Cholesterol-free media + simvastatin (0.04 μM) [2, 11]: 1.043
Complete Media [2, 12]: 0.7235
Difference [2, 28]: −0.32

N[C@@H](CC(=O)N1CCn2c(nnc2C(F)(F)F)C1)Cc1cc(F)c(F)cc1F [Sitagliptin]
Difference [1, 26]: −0.08
Cholesterol-free [1, 27]: 0.9944
Complete [1, 22]: 0.9145
Cholesterol-free media + simvastatin (0.04 μM) [2, 21]: 1.605
Complete Media [2, 22]: 1.493
Difference [2, 7]: −0.11

CC(C)(C)C(=O)Oc1ccc(S(=O)(=O)Nc2ccccc2C(=O)NCC(=O)O)cc1 [Sivelestat (sodium tetrahydrate)]
Difference [1, 13]: −0.30
Cholesterol-free [1, 3]: 1.29
Complete ([1]; NCI-H292 cells, complete media): 0.9928
Cholesterol-free media + simvastatin (0.04 μM) [2, 14]: 1.071
Complete Media [2, 15]: 1.039
Difference [2, 16]: −0.03

CC(C)(C)C(=O)Oc1ccc(S(=O)(=O)Nc2ccccc2C(=O)NCC(=O)O)cc1 [Sivelestat]
Difference [1, 26]: −0.16
Cholesterol-free [1, 27]: 1.175
Complete [1, 22]: 1.017
Cholesterol-free media + simvastatin (0.04 μM) [2, 23]: 0.7952
Complete Media [2, 24]: 0.866
Difference [2, 25]: 0.07

Nc1ccc(C(=O)[O-])c(O)c1.O.O.[Na+] [Sodium 4-aminosalicylate (dihydrate)]
Difference ([1]; Complete minus Cholesterol-free, […]): −0.15
Cholesterol-free [1, 27]: 1.093
Complete [1, 22]: 0.9477
Cholesterol-free media + simvastatin (0.04 μM) [2, 11]: 1.473
Complete Media [2, 12]: 1.188
Difference [2, 28]: −0.29
